According to US20190353647A1, “NOVEL REAL-TIME MULTIPLEXED, MULTI-COLOR BIOLUMINESCENCE RESONANCE ENERGY TRANSFER ASSAY, APPARATUS, AND USES THEREOF” (Universite de Bordeaux, priority 2016, published 2019):

Biological target: T1, TRPV3 (Homo sapiens, UniProt Q8NET8)
T1 sequence (Q8NET8 1-790): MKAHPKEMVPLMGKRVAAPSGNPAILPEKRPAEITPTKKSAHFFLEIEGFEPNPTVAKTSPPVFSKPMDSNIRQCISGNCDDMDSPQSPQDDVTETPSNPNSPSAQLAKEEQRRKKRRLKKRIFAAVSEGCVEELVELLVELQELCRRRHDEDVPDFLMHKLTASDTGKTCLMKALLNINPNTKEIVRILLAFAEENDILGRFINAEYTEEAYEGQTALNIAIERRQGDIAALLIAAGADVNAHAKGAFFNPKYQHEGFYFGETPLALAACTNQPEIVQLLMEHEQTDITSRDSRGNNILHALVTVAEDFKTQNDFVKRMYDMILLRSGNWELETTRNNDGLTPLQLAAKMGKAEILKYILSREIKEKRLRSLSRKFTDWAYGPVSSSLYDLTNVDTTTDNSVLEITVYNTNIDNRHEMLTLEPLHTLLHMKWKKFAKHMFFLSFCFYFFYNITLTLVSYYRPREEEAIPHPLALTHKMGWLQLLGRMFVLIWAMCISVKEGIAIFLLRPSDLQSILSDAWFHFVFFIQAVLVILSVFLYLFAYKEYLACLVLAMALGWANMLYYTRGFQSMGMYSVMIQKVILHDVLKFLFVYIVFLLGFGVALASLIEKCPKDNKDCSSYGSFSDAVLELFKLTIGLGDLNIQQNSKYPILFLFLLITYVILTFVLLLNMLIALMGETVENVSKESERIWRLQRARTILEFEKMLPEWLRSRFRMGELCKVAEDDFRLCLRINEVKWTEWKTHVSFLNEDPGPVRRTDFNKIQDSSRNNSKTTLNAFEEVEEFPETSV
Assay: Intermolecular BRET assay, Luc-TRPV3/YFP-CaM in HEK293T cells
Format: cell-based
Design: expressed in transfected cells; host or cells: HEK293T
Details: dose-response; for BRET signal between YFP-CaM and Luc-TRPV3 on challenge: FIG. 1
Description: In order to generate the BRET constructs, super Yellow Fluorescent Protein 2 and Renilla Luciferase II were used to improve the brightness of the assay. They were referred as YFP and Luc for short in the rest of the manuscript. The cDNA of Luc and YFP were first cloned together using a three-piece ligation in the BamHI/XhoI site of pcDNA3.1(+) (Invitrogen, Carlsbad, Calif., USA), yielding two expression vectors pcDNA3.1 YFP-Luc where YFP was cloned in-fusion at the N-terminal of Luc, and pcDNA3.1 Luc-YFP where Luc was cloned in-fusion at the N-terminal of YFP. Both YFP and Luc were amplified by PCR from the pcDNA3-YFP-EPAC-Luc vector. Luc was cloned either at the N-terminal of YFP as a HindIII-EcoRI fragment (primers used: “Luc_HindIII_ATGN-term sense” and “Luc_no Stop_EcoRI_N-term antisense”) or at the COOH-terminal of YFP as an EcoRI-XhoI fragment (primer used: “Luc_EcoRI_ATG_C-term sense” and “Luc_XhoI_Stop_C-term antisense”). In parallel, YFP was cloned either at the N-terminal of Luc as a HindIII-EcoRI fragment (primers used: “YFP_HindIII_ATG_N-term sense” and “YFP_no Stop_EcoRI_N-term antisense”) or at the COOH-terminal of Luc as a EcoRI-XhoI fragment (primer used: “YFP_EcoRI_ATG_C-term sense” and “YFP_XhoI_Stop_C-term antisense”). The sequence joining Luc and YFP sequence encoded […] (SEQ ID NO: 18) as a linker, and contained an AgeI restriction site. The YFP-hTRPV1-Luc expression vector was obtained by subcloning the human TRPV1 cDNA from the pDONR201-hTRPV1 vector (Harvard Medical School PlasmID Repository, clone HsCD00081472) as an EcoRI PCR fragment in the EcoRI site of the vector pcDNA3.1 YFP-Luc (primer used: “hTRPV1_EcoRI_Fus_Sense” and “hTRPV1_EcoRI_Fus_antisense”). The hTRPV1-Luc expression vector was obtained by subcloning the cDNA of hTRPV1 as a HindIII-EcoRI fragment in place of the YFP in the HindIII-EcoRI site of the pcDNA3.1 YFP-Luc vector (primer used: “hTRPV1_HindIII_ATG_Sense” and “hTRPV1_EcoRI_Fus_antisense”). […]
HEK293T cells were maintained in Dulbecco's modified Eagle's medium-high Glucose (DMEM) (D6429, Sigma) supplemented with 10% fetal bovine serum, 100 units mL-1 penicillin and streptomycin. […] After overnight incubation, transfected cells were then detached, resuspended in DMEM w/o red phenol (Ref 21063-029, ThermoFisher scientific, Waltham, Mass., USA) and replated at a density of 10^5 cells per well in 96-well white plates with clear bottoms (Greiner Bio one, Courtaboeuf, France) pre-treated with D-polylysine (Sigma) for reading with the Tristar2 luminometer (Berthold Technologies, Bad Wildbad, Germany) or onto 12 mm diameter glass coverslips (Knittel Glass, Braunschweig, Germany) treated with poly-L-lysine for the reading with the SpectraPro 2300i spectrometer (Acton Optics, Acton, Mass., USA). […]

Row | SMILES | BRET signal between YFP-CaM and Luc-TRPV3 on challenge | EC50 (FIG. 1, read-out: EC50 of BRET signal increase between YFP-CaM and Luc-TRPV3) [µM]
1 | COc1cc(CNC(=O)CCCC/C=C/C(C)C)ccc1O [CAPS, Capsaicin] | no dose-dependent BRET increase | –
2 | CCN(CC)CCOC(=O)C(c1ccccc1)C1CCCCC1 (stereo not shown) [Drofenine] | dose-dependent increase | 206
3 | CC(C)C[C@H](NC(=O)c1cc2ccccc2s1)C(=O)N1CCN(C(=O)[C@H](CO)NS(=O)(=O)c2ccc(Cl)cc2Cl)CC1 [GSK1016790A] | no dose-dependent BRET increase | –
